Source: ChEMBL document CHEMBL6121051, “Dendritic Antifungal Peptides as Potent Agents against Drug-Resistant Candida albicans and Biofilm” (J Med Chem, 2025)
In brackets after ≈: the same amount, converted by molar mass. Activity calls are given as the source filed them. No cut-off for these calls is given here. Positions of bridges follow the written chain, without caps; N, C: chain ends. Residues, ends and D or L forms follow the SMILES beside them. Chains are numbered I, II in the order given. *: point of attachment. Butyryl = CCCC(=O)*

Tests used:
Candida albicans [1] = assay: Antifungal activity against Candida albicans cgmcc 2.2086 assessed as inhibition of fungal growth incubated for 48 hrs; assay type: functional
Candida albicans [2] = assay: Antifungal activity against fluconazole-resistant Candida albicans 56214 assessed as inhibition of fungal growth incubated for 48 hrs; assay type: functional
Candida albicans [3] = assay: Antifungal activity against Candida albicans SP 3931 assessed as inhibition of fungal growth incubated for 48 hrs; assay type: functional
Candida albicans [4] = assay: Antifungal activity against Candida albicans 58288 assessed as inhibition of fungal growth incubated for 48 hrs; assay type: functional
Candida albicans [5] = assay: Antifungal activity against Candida albicans SP 3903 assessed as inhibition of fungal growth incubated for 48 hrs; assay type: functional
Candida albicans [6] = assay: Antifungal activity against Candida albicans 17546 assessed as inhibition of fungal growth incubated for 48 hrs; assay type: functional
Candida albicans [7] = assay: Antifungal activity against Candida albicans 14936 assessed as inhibition of fungal growth incubated for 48 hrs; assay type: functional
Candida albicans [8] = assay: Antifungal activity against Candida albicans 2.3989 assessed as inhibition of fungal growth incubated for 48 hrs; assay type: functional
Candida albicans [9] = assay: Antifungal activity against Candida albicans SP 3902 assessed as inhibition of fungal growth incubated for 48 hrs; assay type: functional
[10] = Toxicity against human RBC assessed as hemolysis rate at 128 ug/ml incubated for 1 hr; assay type: cell-based, Erythrocyte; settings: red blood cells (RBC), dose 128 µg/ml, read-out: Activity
HEK-293T [11] = assay: Cytotoxicity against human HEK293T cells assessed as cell viability at 8 to 128 ug/ml incubated for 4 hrs by MTT assay; assay type: toxicity, cell-based; settings: dose 8-128 µg/ml
[12] = Cytotoxicity against human HEK293T cells assessed as cell survival rate at 128 ug/ml incubated for 4 hrs by MTT assay; assay type: toxicity, cell-based, HEK-293T; settings: dose 128 µg/ml, read-out: Activity
HEK-293T [13] = assay: Cytotoxicity against human HEK293T cells assessed as damage to cells at 4XMIC incubated for 8 hrs by Calcein-AM/PI staining based fluorescence microscopy; assay type: toxicity, cell-based
RAW264.7 = assay: Cytotoxicity against mouse RAW264.7 cells assessed as damage to cells at 4XMIC incubated for 8 hrs by Calcein-AM/PI staining based fluorescence microscopy; assay type: toxicity, cell-based; settings: raw264.7, 8 h
Candida albicans [14] = assay: Antifungal activity against Candida albicans assessed as inhibition of fungal growth incubated for 48 hrs in presence of KCl; assay type: functional, organism-based
Candida albicans [15] = assay: Antifungal activity against Candida albicans assessed as inhibition of fungal growth incubated for 48 hrs in presence of NH4Cl; assay type: functional, organism-based
Candida albicans [16] = assay: Antifungal activity against Candida albicans assessed as inhibition of fungal growth incubated for 48 hrs in presence of MgCl2; assay type: functional, organism-based
Candida albicans [17] = assay: Antifungal activity against Candida albicans assessed as inhibition of fungal growth incubated for 48 hrs in presence of CaCl2; assay type: functional, organism-based
Candida albicans [18] = assay: Antifungal activity against Candida albicans assessed as inhibition of fungal growth incubated for 48 hrs in presence of FeCl3; assay type: functional, organism-based
Candida albicans [19] = assay: Antifungal activity against Candida albicans assessed as inhibition of fungal growth incubated for 48 hrs in presence of ZnCl2; assay type: functional, organism-based
Candida albicans [20] = assay: Antifungal activity against Candida albicans assessed as inhibition of fungal growth incubated for 48 hrs in presence of NaCl; assay type: functional, organism-based
Candida albicans [21] = assay: Antifungal activity against Candida albicans assessed as inhibition of fungal growth compound preincubated with upto 4 mg/ml trypsin for 4 hrs followed by incubation with fungus for 48 hrs; assay type: functional, organism-based
Candida albicans [22] = assay: Antifungal activity against Candida albicans assessed as inhibition of fungal growth compound preincubated with upto 8 mg/ml chymotrypsin for 4 hrs followed by incubation with fungus for 48 hrs; assay type: functional, organism-based
Candida albicans [23] = assay: Antifungal activity against Candida albicans assessed as inhibition of fungal growth compound preincubated with upto 8 mg/ml proteinase K for 4 hrs followed by incubation with fungus for 48 hrs; assay type: functional, organism-based
Candida albicans [24] = assay: Antifungal activity against Candida albicans assessed as inhibition of fungal growth preincubated with 4 mg/ml trypsin for 8 hrs followed by incubation with fungus for 48 hrs; assay type: functional, organism-based
Candida albicans [25] = assay: Antifungal activity against Candida albicans assessed as inhibition of fungal growth preincubated with 8 mg/ml chymotrypsin for 8 hrs followed by incubation with fungus for 48 hrs; assay type: functional, organism-based
Candida albicans [26] = assay: Antifungal activity against Candida albicans assessed as inhibition of fungal growth preincubated with 8 mg/ml proteinase K for 8 hrs followed by incubation with fungus for 48 hrs; assay type: functional, organism-based
Candida albicans [27] = assay: Fungicidal killing kinetic activity against fluconazole-resistant Candida albicans 56214 assessed as killing of fungi at 1XMIC to 4XMIC incubated with fungus in PBS solution for 3 mins followed by culturing on YPD plate for 48 hrs; assay type: functional, organism-based; settings: time 2883.0 min
Candida albicans [28] = assay: Inhibition of biofilm formation of fluconazole-resistant Candida albicans 56214 at 8 uM incubated for 48 hrs by crystal violet staining based analysis; assay type: functional
[29] = Drug penetration into mature fluconazole-resistant Candida albicans 56214 biofilms assessed as increase in green fluorescence intensity at 8 to 16 uM using FITC-labeled compound incubated in dark for 3 hrs by DAPI staining based laser confocal microscopy; assay type: ADME; settings: dose 8-16 µM
Candida albicans [30] = assay: Fungicidal activity against fluconazole-resistant Candida albicans 56214 assessed as killing effect within biofilms by measuring increase in red fluorescence intensity at 8 uM incubated for 3 hrs by SYTO9/PI staining based fluorescence microscopy; assay type: functional
Candida albicans [31] = assay: Induction of morphological changes in Candida albicans 2.2086 at 8 to 16 uM incubated for 2 hrs by fluorescence cell imaging system; assay type: functional, organism-based; settings: dose 8-16 µM
Cell wall [32] = assay: Induction of cell wall permeability in Candida albicans 2.2086 at 16 uM by NPN probe based fluorescence analysis; assay type: subcellular
Cell wall [33] = assay: Induction of cell wall permeability in Candida albicans 2.2086 assessed as increase in cell wall damage by NPN probe based fluorescence analysis; assay type: subcellular; settings: dose 4-128 µM
Cell membrane [34] = assay: Disruption of cytoplasmic membrane in Candida albicans 2.2086 assessed as increase in membrane depolarization at 1XMIC to 4XMIC measured after 500 secs by diSC3-5 dye based potentiometric analysis; assay type: subcellular; settings: time 500.0 sec
Cell membrane [35] = assay: Disruption of cytoplasmic membrane in Candida albicans 2.2086 assessed as increase in membrane depolarization at 1XMIC by diSC3-5 dye based potentiometric analysis
Candida albicans [36] = assay: Fungicidal activity against fluconazole-resistant Candida albicans 56214 assessed as killing effect by measuring orange fluorescence at 8 uM incubated for 1 hr by SYTO9/PI staining based fluorescence microscopy; assay type: functional
Cell membrane [37] = assay: Induction of cell membrane damage in Candida albicans assessed as scattered distribution of cell wall and cell membrane structures, loss of integrity and leakage of contents at 16 uM incubated for 1 hr by scanning electron microscopy; assay type: subcellular
Cell membrane [38] = assay: Induction of cell membrane damage in Candida albicans assessed as scattered distribution of cell wall and cell membrane structures, loss of integrity and leakage of contents at 16 uM incubated for 1 hr by transmission electron microscopy; assay type: subcellular
[39] = Drug localization in Candida albicans cell membrane using FITC-labeled compound by FITC/PI staining based confocal microscopy; assay type: ADME, cell membranes
[40] = Drug localization in Candida albicans cell membrane using FITC-labeled compound at 8 uM incubated for 3 hrs by DAPI staining based fluorescence microscopy; assay type: ADME, cell membranes
Candida albicans [41] = assay: Induction of ROS production in Candida albicans 2.2086 assessed as increase in intracellular ROS accumulation at <4 uM incubated for 1 hr by DCFH-DA staining based fluorescence analysis; assay type: functional, organism-based
Candida albicans [42] = assay: Antifungal activity against fluconazole-resistant Candida albicans 56214 infected in ICR mouse assessed as wound healing with appearance of new skin tissue at 5 mg/ml administered topically bid for 3 days starting at 12 hrs post-infection and measured for 6 days; assay type: functional, organism-based; settings: time 6.0 day
Candida albicans [43] = assay: Antifungal activity against fluconazole-resistant Candida albicans 56214 infected in ICR mouse assessed as log reduction in fungal burden on the infected skin at 5 mg/ml administered topically bid for 3 days starting at 12 hrs post-infection and measured after 7 days; assay type: functional; settings: time 7 day
Candida albicans [44] = assay: Antifungal activity against fluconazole-resistant Candida albicans 56214 infected in ICR mouse assessed as elimination of fungal hyphae on the infected skin at 5 mg/ml administered topically bid for 3 days starting at 12 hrs post-infection and measured after 7 days by PAS staining; assay type: functional, organism-based; settings: time 7.0 day
Candida albicans [45] = assay: (§1) Antifungal activity against fluconazole-resistant Candida albicans 56214 infected in ICR mouse assessed as reduction in severity of skin infection at 5 mg/ml administered topically bid for 3 days starting at 12 hrs post-infection and measured after 7 days by PAS staining based analysis; assay type: functional, organism-based; settings: time 7.0 day
Candida albicans [46] = assay: as §1, with “in oxidative stress by measuring decrease in ROS accumulation in” for “in severity of”, “skin wounds” for “skin infection”, “by fluorescence” for “by PAS”; assay type: functional, organism-based; settings: time 7.0 day
Candida albicans [47] = assay: Antifungal activity against fluconazole-resistant Candida albicans 56214 infected in ICR mouse assessed as reduction in IL-6 expression in skin wound at 5 mg/ml administered topically bid for 3 days starting at 12 hrs post-infection and measured after 7 days by immunofluorescence analysis; assay type: functional, organism-based; settings: time 7.0 day
Candida albicans [48] = assay: Antifungal activity against fluconazole-resistant Candida albicans 56214 infected in ICR mouse assessed as reduction in TNF-alpha expression in skin wound at 5 mg/ml administered topically bid for 3 days starting at 12 hrs post-infection and measured after 7 days by immunofluorescence analysis; assay type: functional, organism-based; settings: time 7.0 day

## CCCC(=O)NCC(=O)NCC(=O)NCC(=O)N[C@@H](CCCCNC(=O)[C@@H]1CCCN1C(=O)[C@H](CCCNC(=N)N)NC(=O)[C@@H]1CCCN1C(=O)[C@H](CCCNC(=N)N)NC(=O)[C@@H]1CCCN1C(=O)[C@@H](N)CCCNC(=N)N)C(=O)N[C@@H](CCCCNC(=O)[C@@H]1CCCN1C(=O)[C@H](CCCNC(=N)N)NC(=O)[C@@H]1CCCN1C(=O)[C@H](CCCNC(=N)N)NC(=O)[C@@H]1CCCN1C(=O)[C@@H](N)CCCNC(=N)N)C(=O)N[C@@H](CCCNC(=N)N)C(=O)N1CCC[C@H]1C(=O)N[C@@H](CCCNC(=N)N)C(=O)N1CCC[C@H]1C(=O)N[C@@H](CCCNC(=N)N)C(=O)N1CCC[C@H]1C(N)=O (I: Butyryl-GGGKKRPRPRP-NH2 / II: H-RPRPRP / III: H-RPRPRP; amide I:4-II:C, I:5-III:C)
Candida albicans [1]
  MIC: 4 µM (≈ 11.2 µg/mL)
Candida albicans [2]
  MIC: 4 µM (≈ 11.2 µg/mL)
Candida albicans [3]
  MIC: 4 µM (≈ 11.2 µg/mL)
Candida albicans [4]
  MIC: 8 µM (≈ 22.4 µg/mL)
Candida albicans [5]
  MIC: 4 µM (≈ 11.2 µg/mL)
Candida albicans [6]
  MIC: 16 µM (≈ 44.7 µg/mL)
Candida albicans [7]
  MIC: 4 µM (≈ 11.2 µg/mL)
Candida albicans [8]
  MIC: 4 µM (≈ 11.2 µg/mL)
Candida albicans [9]
  MIC: 4 µM (≈ 11.2 µg/mL)
[10]
  hemolysis at 1 h, 128 ug/ml: < 2%
HEK-293T [11]
  Activity: Non-toxic
[12]
  viability at 4 h, 128 ug/ml: 95%
HEK-293T [13]
  Activity: Non-toxic
RAW264.7
  Activity: Non-toxic
Candida albicans [14]
  Activity: Active
Candida albicans [15]
  Activity: Active
Candida albicans [16]
  Activity: Active
Candida albicans [17]
  Activity: Active
Candida albicans [18]
  Activity: Active
Candida albicans [19]
  Activity: Active
Candida albicans [20]
  Activity: Active
Candida albicans [21]
  Activity: Active
Candida albicans [22]
  Activity: Active
Candida albicans [23]
  Activity: Active
Candida albicans [24]
  Activity: Active
Candida albicans [25]
  Activity: Active
Candida albicans [26]
  Activity: Active
Candida albicans [27]
  Activity: Active
Candida albicans [28]
  inhibition at 8 µM: 100%
[29]
  Drug uptake: Active
Candida albicans [30]
  Activity: >90%
Candida albicans [31]
  Activity: Active
Cell wall [32]
  Activity: 100%
Cell wall [33]
  Activity: Dose-dependent-effect
Cell membrane [34]
  Activity: Active
Cell membrane [35]
  Activity: Active; Effective Depolarization Observed
Candida albicans [36]
  Activity: 90%
Cell membrane [37]
  Activity: Active
Cell membrane [38]
  Activity: Active
[39]
  Drug uptake: Active
[40]
  Drug uptake: > 90%
Candida albicans [41]
  Activity: Active
Candida albicans [42]
  Activity: Active
Candida albicans [43]
  log(activity): ~1.7
Candida albicans [44]
  Activity: Active
Candida albicans [45]
  Activity: Active
Candida albicans [46]
  Activity: Active
Candida albicans [47]
  Activity: Active
Candida albicans [48]
  Activity: Active
